# Data reported in PMC5505701, “Somatostatin binds to the human amyloid β peptide and favors the formation of distinct oligomers” (eLife, 2017).
# Entries after “also recorded” stand apart in the source; their conditions may differ.
# What was measured:
# [1] = system: SST14; assay: SST14-dependent ThT incorporation in presence of Aβ1-42; format: biochemical, human
# Text: Figure 4. […] (A) Workflow of ThT-based aggregation assay. (B) Representative ThT fluorescence charts using synthetic Aβ1-42 alone or in combination with SST14 or negative control AVP peptides. […] Please see legend for experimental conditions. DOI: http://dx.doi.org/10.7554/eLife.28401.008 Figure 4—figure supplement 1. […] (A) Workflow of ThT-based aggregation assay. […] (B) Representative ThT fluorescence charts monitoring SST14-dependent ThT incorporation. […] DOI: http://dx.doi.org/10.7554/eLife.28401.009 [drawing 1] Figure 4—figure supplement 2. […] (A) Workflow of amylin-dependent ThT fluorecence assay in the presence or absence of SST14. (B) Representative ThT fluorescence charts monitoring amylin-dependent ThT incorporation. […] DOI: http://dx.doi.org/10.7554/eLife.28401.010 [drawing 2]
# Assay procedures were largely based on a protocol described by Sarah Linse’s group ([Hellstrand et al., 2010]). […] The subsequent plate incubation proceeded at 37°C with shaking at 700 rpm for 4 of every 5 min in a microplate reader (CLARIOstar, BMG Labtech, Guelph, ON, Canada) for overall durations specified in individual figures. ThT fluorescence was measured every 5 min at excitation and emission wavelengths of 444 nm and 485 nm, respectively.
# [2] = target: T1, Aβ1-42 (Homo sapiens, UniProt P05067); assay: Negative stain electron microscopy of Aβ1-42 assemblies; format: biochemical; conditions: 50 μM Aβ1-42 in PBS, with or without equimolar SST
# T1 construct: purchased Anaspec, Inc. (Fremont, CA, USA) AS-24224; host or cells: synthetic peptide
# [3] = system: tau phosphorylated at pSer202/pThr205 (AT8) and pThr231 (AT180) in primary hippocampal neurons; assay: Primary hippocampal neuron tau phosphorylation assay (Western blot)
# [4] = target: T1, Aβ1-42; assay: Western blot / silver stain detection of Aβ1-42 after incubation with SST14 or CST17; format: biochemical; conditions: 18 hr incubation, 6E10 Western blot, Aβ1-42 alone or with SST14 or CST17
# Procedure: Initially, we were interested in observing the influence of incubation time on sample composition (Figure 5B).
# [5] = system: Aβ; conditions: ref Maftei et al., 2012; cited from earlier work
# Text: Although initially captured at pH 8.0, a widely-used pH for interactome analyses, owed to its wide-spread use in radioimmunoprecipitation assay (RIPA) buffer formulations, the oAβ-SST14 interaction was in subsequent validation ...
# T1 sequence (P05067 672-713 limits assumed): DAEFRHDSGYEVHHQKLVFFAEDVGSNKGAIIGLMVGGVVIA
Substance,"delay of SST14-dependent ThT incorporation by monomeric Aβ1-42 ([1]; 1 μM monomeric Aβ1-42, 250 μM SST14)","delay of SST14-dependent ThT incorporation by oligomeric Aβ1-42 ([1]; 1 μM pre-aggregated Aβ1-42, 250 μM SST14)",assemblies observed by negative stain electron microscopy [2],"tau hyperphosphorylation by monomeric Aβ1-42 ([3]; monomeric Aβ1-42 (0 hr) alone, 24 hr exposure)","tau hyperphosphorylation by oligomeric Aβ1-42 ([3]; pre-aggregated (24 hr) Aβ1-42, 24 hr exposure, day 18 cultures, AT8 and AT180, listed as oAβ1-42)",apparent molecular weight of HMM 6E10 signals [4],Aβ binding epitope [5]
amyloid β peptide 1-42 [Aβ1-42],"Oligomeric, but not monomeric, Aβ1-42 interferes with SST14-dependent ThT incorporation",reliably delayed SST14-dependent ThT incorporation by several hours; also recorded: profound delay in SST14 aggregation-dependent ThT incorporation,characteristic amyloid fibrils,not observed when monomeric Aβ1-42 was added to the cell culture medium alone,robust tau hyperphosphorylation was observed,55-200 kDa,
humanin: 21-24 amino acid peptide coded within the mitochondrial 16S ribosomal RNA gene,,,,,,,interacts with an Aβ binding epitope encompassing residues 17-28
